Laboratory results as given in patent publication US9309243B2, “Imidazopyridine derivatives as modulators of TNF activity” (UCB Biopharma SPRL, priority 2012, dated 2016).

## Cc1nc2cc(F)c(-c3cnc(C4(O)COC4)nc3)cn2c1Cc1ccccc1OC(F)F [Example 322, 3-[5-(3-{[2-(Difluoromethoxy)phenyl]methyl}-7-fluoro-2-methylimidazo[1,2-a]pyridin-6-yl)pyrimidin-2-yl]oxetan-3-ol]
  melting point: 143 to 144 °C
